Measured values reported in patent US20220233503A1, “METHODS OF TREATING SEPSIS WITH SYNAPTIC VESICLE 2A AND/OR 2B BINDING CHEMICAL ENTITIES” (INSTITUT PASTEUR, priority 2016, published 2022).
Like-named read-outs stand apart in the source and are kept apart here.

Key:
[1] = system: CD11b positive cells (microglial cells); assay: mRNA expression of M1/M2 markers and cytokines in sorted CD11b positive cells after sepsis; assay type: in vivo, mice
Protocol: RNA Purification: Total brains or mircodissected brain under binoccular magnifier were collected in liquid nitrogen and stored at −80° C. before processing. Tissues were unfrosted in 1 ml of Qiazol (Qiagen, Nederland) and shredded using a TissueLyzer II and metallic beads (Qiagen, Nederland). Two hundred microlitters of chloroform (Merck, Darmstadt, Deutschland) were added before spinning for 15′ at 4° C.-20 000 rpm. The upper aqeuous phase was collected and purified using RNEasy Minikit with a DNAse step (Qiagen, Nederland) to remove any remaining genomic DNA. Purified RNA were quantified and a reverse transcription on 500 ng of RNA using SuperScript® II Reverse Transcriptase (Life Technologies) was realized. Quantitative real time polymerase chain reaction was performed on 10 ng cDNA with SYBR® Select Master Mix (Roche, Franche) following manufacturer's recommandation on a StepOne™ Real-Time PCR System (Life Technologies) and results were analyzed on StepOne softwares. Triplicates with a Cycle Threshold standard deviation <0.2 were considered for further analyzes. ΔΔCT method was used to quantify fold increases between animals from different groups to control group mean. The following primers were used.
Datas are presented as mean±SEM compared to septic placebo group set at 1.

[2] = system: Inducible NO synthase gene (inos); assay type: cell-based, murine; details: 24 hours
Excerpt: NO: 53) and anti-sense primer:[…] NO: 54). […] ID NO: 55) and anti-sense primer […] NO: 56). […] NO: 57) and anti-sense primer:[…] NO: 58).

[3] = system: pro- and anti-inflammatory cytokine levels in Serum; assay: Cytokine multiplex in serum after sepsis; assay type: in vivo, mice; details: 24 hours after sepsis induction
Protocol: Cytokine multiplex: Brain samples were weighed and unfrosted in 100 μl of extraction buffer (PBS 1×, complete protease inhibitor, sigma-aldrich, triton 0.1%) processed in 2 ml Lysing Matrix A tubes with FastPrep-24 (MP biomedicals, Germany). Tubes were centrifuged at 20000 g at 4° C. and supernatant was collected and protein concentration was determined with light absorbance at 280 nm using a Nanodrop Lite Spectrophotometer (Thermo Scientific). Sera were used undiluted. Cytokines were measured using a Bio-Plex System and Mouse Cytokine Standard 23-Plex Group 1 kit following manufacturer's recommendations. Raw datas were analyzed by dividing the concentration of cytokine with protein concentration in lyzate and weight of sample measured on precision balance. Then every cytokine concentrations are presented as a ratio compared to the untreated sepsis group.

microglial cells = assay: Morphological analysis of microglial cells (Iba-1 staining) after sepsis; assay type: in vivo, mice
Protocol: Immunohistochemistry: Mice were perfused through left ventricule with paraformaldehyde 4% and the collected brains with small forceps. Brain were fixed overnight with PFA 4% and then cut in 100 μm sagittal slices with a vibratome VT1200S (Leica, Germany). Ionized calcium binding adaptor type 1 immunohistochemistry. Brain sections were washed with PBS and aspecific binding sites were saturated with a bovine serum albumine 3% in PBS solution for 4 hours. Then primary antibody (Rabbit, Wako, 40 ng/μl) was applied for 24 hours at 4° C. under constant agitation. Cyanine 3 secondary antibody (Donkey anti-Rabbit) and Hoechst 33342 (1/4000) was then applied overnight at 4° C. with constant agitation.
Imaging of samples was realized in a medium throughput spinning disk confocal microscope (CV1000) on 5×5 mozaics reconstructed with an overlap of 50% to avoid signal intensity lowering on the edge of tiles. Stitching was realized using a homemade macro with the Grid/collection plugin for Fiji channel by channel and then manually realligned if necessary. Automated analysis of microglial cell was realized on Iba1 staining. Automatic local contrast thresholding using Phanshalkar algorithm with a radius of 2 μm was performed for microglia channel, and with a radius of 12 μm for nuclei channel. Microglial cells were identified using a fixed empirical threshold for percentage of perinuclear area stained by Iba-1 using thresholded image. Only individual microglial cells obtained after segmentation with a tridimensionnal watershed algorithm were furthered considered for analysis. Morphometric study of microglial cells were performed using mcib3d plugin for FIJI. Concentric envelopes were computed starting 1 μm after nuclear envelope to analyze the number of microglial process crossing this sphere and reproduce a conformational tridimensional analysis on microglial cells.
Individual and summarized data were then analyzed in R statistics. Area under the curve of number of microglial processes. When covariant variables were identified, the most relevant was considered.
FIG. 3 (G, H, I). […]

[4] = system: peripheral nervous system; details: septic rats, single dose of 300, 600 or 1200 mg/kg one hour after surgery; cited from earlier work
CLP mice = assay: Sepsis score after CLP; assay type: in vivo, C57Bl/6 mice; details: evaluated every 12 hours
Protocol: Analgesia and rehydration of mice were performed with buprenorphine (0.1 mg/Kg, Buprecare, Axience, Pantin, France) every 12 hours until complete recovery. […] Clinical scoring: Sepsis severity was evaluated twice a day until day 4, or normalization of «sepsis score», a previously described score that ranges from […]. This score evaluates markers of local (abdominal spasm) and systemic reaction to sepsis (rectal temperature, fur erection, abnormal breathing), behavioural alterations (feces cleaning, presence of periocular dried eyedrop, incomplete palpebral opening, spontaneous activity in the cage, the escape attempt after tail grabbing) and signs of muscular weakness (grip strength, body tone, difficulty to walk). Each item was scored 0 or 1, with a total score rang from 0 (normal) to 12 (highly severe). For ethical reason, mice with a sepsis score ≥8 and a temperature ≤34.5° C. were euthanized as they were considered to almost certainly die within the 12 hours.
FIG. 1C. Sepsis score was evaluated every 12 hours (general state criteria, temperature, fur erection, respiratory rate, sickness behaviour, spontaneous activity in the home cage, lacrimation, palpebral closure, feces toilet, locomotor criteria, grip strength, difficulties walking, local reaction, abdominal wall contraction, axial body tone). Datas are presented as mean±SEM.

[5] = cited from earlier work
[6] = CD11b positive cells, 24 hours after sepsis, vs placebo

In the case of `CC[C@@H](C(N)=O)N1CCCC1=O` (single isomer, unassigned) [levetiracetam], the CD32 transcription [1, 6] is reported as “increased”, the CD86 transcription [1, 6] is reported as “increased” and the “Il 1 beta transcription” value [1, 6] is reported as “increased”. The “MCP 1 transcription” value [1, 6] was “increased”, the “anti inflammatory markers transcription” value [1, 6] was “not increased” and the microglial cell polarization ([1]; microglial cell sorting in whole brain of septic mice) was “polarized towards a pro-inflammatory (M1) phenotype”. For the same molecule, the inos expression ([2]; high dose LPS challenge) was “failed to modulate”, the inos expression ([2]; high dose levetiracetam, low dose LPS challenge) was “lowered” and the “cytokine concentration in plasma” value [3] was “No significant effect”. The “principal components of microglial morphology” value (microglial cells; 4 main components of 107 morphological criteria, septic mice) was “different”, the “microglial cell morphological changes” value (microglial cells; 6 hours after sepsis, CeA and B1A) was “decreased” and the “number of microglial cell processes” value (microglial cells; 15 days after sepsis) was “increased dramatically”. The “effects on the peripheral nervous system” value [4] was “broad spectrum of protective and restorative effects”, the “sepsis score vs placebo” value (CLP mice) was “did not differ” and the solubility in acetonitrile ([5]; acetonitrile) was 5.7 g/100 mL. For the same molecule, the solubility in chloroform ([5]; chloroform) was 65.3 g/100 mL, the solubility in ethanol ([5]; ethanol) was 16.5 g/100 mL and the solubility in methanol ([5]; methanol) was 53.6 g/100 mL. The solubility in n-hexane ([5]; n-hexane) was “practically insoluble” and the solubility in water ([5]; water) was 104.0 g/100 mL.
